Laboratory results: patent US20030125242A1, “Polypeptides comprising multimers of nuclear localization signals or of protein transduction domains and their use for transferring molecules into cells” (priority 1999, published 2003)
Where no end group is shown, it is not given here.

Key:
16HBE14o cells = test: tracking of DNA-TOTO-3/(PKKKRKVG)4-FITC complexes on their way to the nucleus; format: cell-based; details: 100% confluent cells, 5 μg CMVL-W, 24 μg peptide (N/P 8)
HeLa S6 cells [1] = test: nuclear transport of BSA covalently linked to peptide in digitonin permeabilized cells; format: cell-based; details: 600 nM peptide/BSA-BODIPY, 30 min, fluorescence microscope
16HBE14o-cells [2] = test: luciferase transfection assay with vector/DNA (CMVL-W) complexes; format: cell-based
HeLa S6 cells [3] = test: fluorescence in situ hybridisation of plasmid pEGFP after transfection (fluorescence microscopy and CLSM); format: cell-based; details: for location of plasmid DNA by CLSM: confocal laser scanning microscopy; for nuclear localization of plasmid DNA / cells showing signals in the nuclear region: fluorescence microscopy
DNase I = test: stability of vector/DNA complexes against DNase I digestion, agarose gel; format: physicochemical; details: higher enzyme concentrations (2.5, 5, 10 U DNase I), 1 h at 37° C., 3 μg pEGFP
16HBE14o-cells [4] = test: inhibition of gene transfer by excess of free peptide, luciferase assay; format: cell-based; details: 30 fold molar excess of free peptide added 20 min before the complexes
16HBE14o-cells [5] = test: proportion of transgene (GFP) expressing cells by flow cytometry; format: cell-based; details: 1 μg pEGFP/(PKKKRKVG)4 complexes (N/P 8), 24 hours
Procedure: (A, B, D, E) Flow cytometry of 16HBE14o-cells transfected with DNA (pEGFP) or DNA complexed with (PKKKRKVG)4. Transfection was stopped after 24 hours. Cells were treated with trypsin and resuspended in medium. FCS: Forward scatter. FH-1: green channel for the GFP signal. (A, B) Control. Cells were only transfected with 1 μg pEGFP. Mean: 5.66. M1: 96% of total cells. M2: 4% of total cells. (D, E) Transfection with 1 μg pEGFP/(PKKKRKVG)4 complexes (N/P 8). Mean: 10.25. M1: 55% of total cells. M2: 45% of total cells. Near half the cell population expresses green fluorescence protein. (C, F) Fluorescence microscopy images of HeLa S6 cells transfected with (C) 1 μg pEGFP or (F) 1 μg pEGFP complexed with (PKKKRKVG)4 (N/P 8). Images were taken with a 40× objective (exposure time: 2 sec).
It was examined how many cells express the transgene product. 16HBE14o-cells were transfected with 1 μg pEGFP/(PKKKRKVG)4 complexes N/P 8 (24 hours) and measured by flow cytometry.

COS7 cells [6] = test: transfection efficiency at 4° C. compared with 37° C.; format: cell-based; details: 4 h transfection, COS7, luciferase after 24 h
Procedure: Cells were transfected with 1 μg of CMVL-W complexed with C(YGRKKRRQRRRG)24 at N/P=10 for 4 h at 4° C. or at 37° C. Luciferase activity was measured (10 sec) after 24 h.
At low temperatures such as 4° C. energy-dependent processes like the endosomal uptake are suppressed. For this reason transfection efficiency at 4° C. could be an indicator for the extend of endosomal uptake which takes place during the transfection period. Transfection was performed in the way as described above but for the 4° C. experiment the 24 well plate was incubated in a cool room at 4° C. for 4 h.

COS7 cells [7] = test: effect of peptide on gene transfer mediated by PEI, fractured Dendrimers and Lipofectamine; format: cell-based

## (PKKKRKVG)4: tetramer of the wild-type SV40 large T-antigen NLS PKKKRKV with a glycin added at the end of each NLS (SEQ ID NO: 5) (also: tetramer of PKKKRKVG, linkage not given here)
16HBE14o cells; 4 h
  localization of complexes after 4 h: most of the complexes were outside the nucleus
16HBE14o cells; 30 h
  localization of peptide and DNA after 30 h: could be found in the nucleus
HeLa S6 cells [1]
  nuclear transport of covalently coupled BSA-BODIPY: transports the coupled BSA into the nucleus
16HBE14o-cells [2]
  cell transfection compared with DNA/Dendrimer-complexes: cell transfection as high as with DNA/Dendrimer-complexes
  cell transfection higher as with DNA/poly-L-lysine 2.9 kD/INF7a complexes: 1000 fold
  enhancement of cell transfection compared to studies without endosomolytic agents: 10 fold
16HBE14o-cells [2]; 1 μg CMVL-W, 4.8 μg (PKKKRKVG)4 (N/P 8), luciferase after 24 h
  transfection rates compared with different non-viral vectors: almost as high transfection rates as with Dendrimer/DNA complexes
16HBE14o-cells [2]; 1 μg CMVL-W, vs poly-L-lysine 2.9 kD/DNA complexes, luciferase after 24 h
  increase of relative light units (RLU) per mg cell protein in comparison to poly-L-lysine: 100 fold
16HBE14o-cells [2]; 100% confluent cells, CMVL-W/Dendrimer complexes plus (PKKKRKVG)4
  transfection results in comparison to transfections without (PKKKRKVG)4: 10 fold
16HBE14o-cells [2]; added in increasing concentrations to polymer/DNA complexes
  effect of added (PKKKRKVG)4 on transfection efficiency of PEI/CMVL-W and Dendrimer/CMVL-W complexes: significant increase of transfection efficiency
HeLa S6 cells [3]; 2 hours
  location of plasmid DNA by CLSM: already plasmid DNA in the nucleus
  nuclear localization of plasmid DNA: plasmid DNA could be detected within the nuclear region
HeLa S6 cells [3]; 24 hours
  location of plasmid DNA by CLSM: accumulated in the nucleus
  cells showing signals in the nuclear region: 68.9%
DNase I
  DNA protection of complexed DNA against DNase I digestion: still can bee seen
16HBE14o-cells [4]
  inhibition of gene transfer of DNA/(PKKKRKVG)4 complexes by free peptide: complete blockade of gene transfer
16HBE14o-cells [5]
  M1 of total cells: 55%
  M2 of total cells: 45%
  Mean (GFP signal, flow cytometry): 10.25
  cells showing a GFP signal: Approximately 50%

## (PKTKRKVG)4: tetramer containing mutant large T-NLS (SEQ ID NO: 6); threonin mutant known to be transport deficient [reference compound]
HeLa S6 cells [1]
  nuclear transport of covalently coupled BSA-BODIPY: no signal was seen in the nucleus
16HBE14o-cells [2]
  gene transfer efficiency compared with (PKKKRKVG)4/DNA complexes: significantly lower gene transfer efficiency
HeLa S6 cells [3]; 2 hours
  location of plasmid DNA by CLSM: arranged around the nuclear membrane
  nuclear localization of plasmid DNA: nuclear localization of plasmid DNA was not seen
HeLa S6 cells [3]; 24 hours
  location of plasmid DNA by CLSM: arranged around the nuclear membrane
  cells showing signals in the nuclear region: 14.7%

## C(YGRKKRRQRRRG)2: dimer of HIV-1 TAT protein transduction domain YGRKKRRQRRR with G, N-terminal C (SEQ ID NO: 30) (CYGRKKRRQRRRG; also: dimer: C(YGRKKRRQRRRG)2, linkage not given here)
COS7 cells [6]
  decrease of transfection efficiency at 4° C. compared to 37° C.: 19 fold
COS7 cells [7]; peptide N/P=1, then PEI 25 kD N/P 10
  effect on gene transfer mediated by PEI: enhances gene transfer
COS7 cells [7]; peptide N/P=1, then fractured Dendrimer N/P 4.5
  effect on gene transfer mediated by fractured dendrimers: enhances gene transfer

## wheat germ agglutinin
HeLa S6 cells [1]
  nuclear transport of covalently coupled BSA-BODIPY: no signal was seen in the nucleus
